Data from patent US20250215039A1, “NUCLEOSIDES FOR TREATING CANCER” (PRIMEFOUR THERAPEUTICS, INC., priority 2022, published 2025).
Like-named read-outs stand apart in the source and are kept apart here.

Tested on: cancer cell lines
Assay: Cancer cell proliferation activity (CellTiterGlo, 72 h)
Type: cell-based
Details: 72 h, 72 h, read-out: IC50 cell proliferation
How it was run: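 Readout is CellTiterGlo luminescence after 72 h compound exposure (0.1% DMSO final), started one day post-seeding, at 37 °C.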

Compound: Nc1nc(F)nc2c1ncn2[C@@H]1O[C@H](CO)[C@@H](O)[C@H]1O [compound 184, (2R,3R,4S,5R)-2-(6-amino-2-fluoro-9H-purin-9-yl)-5-(hydroxymethyl)tetrahydrofuran-3,4-diol]
- IC50 (5637 (bladder)): 0.19 µM
- IC50 (CLS439 (bladder)): 0.06 µM
- IC50 (HS729 (muscle)): 0.1 µM
- IC50 (J82 (bladder)): 0.1 µM
- IC50 (JAR (placenta)): 0.04 µM
- IC50 (MT3 (breast)): 0.09 µM
- IC50 (PANCI (pancreas)): 0.13 µM
- IC50 (PC3 (prostate)): 0.04 µM
- IC50 (RD (muscle)): 0.06 µM
- IC50 (T24 (bladder)): 0.06 µM
- IC50 (Homo sapiens, 22Rv1, 72 h, 22RV1 (prostate)): 0.22 µM
- IC50 (Homo sapiens, 786-0, 72 h, 786O (kidney)): 0.05 µM
- IC50 (Homo sapiens, A204, 72 h, A204 (muscle)): 0.02 µM
- IC50 (Homo sapiens, A549, 72 h, A549 (lung)): 0.04 µM
- IC50 (Homo sapiens, A673, 72 h, A673 (bone)): 0.27 µM
- IC50 (Homo sapiens, A2780, 72 h, A2780 (ovary)): 0.15 µM
- IC50 (Homo sapiens, A-375, 72 h, A375 (skin)): 0.04 µM
- IC50 (Homo sapiens, A-431, 72 h, A431 (skin)): 0.04 µM
- IC50 (Homo sapiens, ACHN, ACHN (kidney)): 0.02 µM
- IC50 (Homo sapiens, ASPC1, 72 h, ASPC1 (pancreas)): 0.03 µM
- IC50 (Homo sapiens, BT-20, 72 h, BT20 (breast)): 0.03 µM
- IC50 (Homo sapiens, BXPC-3, 72 h, BXPC3 (pancreas)): 0.08 µM
- IC50 (Homo sapiens, C-33-A, C33A (endometrial)): 0.05 µM
- IC50 (Homo sapiens, CAKI-1, 72 h, CAKI1 (kidney)): 0.01 µM
- IC50 (Homo sapiens, COLO 205, 72 h, COLO205 (colon)): 0.12 µM
- IC50 (Homo sapiens, COLO-678, 72 h, COLO678 (colon)): 0.06 µM
- IC50 (Homo sapiens, Ca-Ski, CASKI (endometrial)): 0.03 µM
- IC50 (Homo sapiens, Caco-2, 72 h, CACO2 (colon)): 0.19 µM
- IC50 (Homo sapiens, Calu-6, 72 h, CALU6 (lung)): 0.03 µM
- IC50 (Homo sapiens, DLD-1, 72 h, DLD1 (colon)): 0.09 µM
- IC50 (Homo sapiens, DU-145, 72 h, DU145 (prostate)): 0.02 µM
- IC50 (Homo sapiens, EFO-21, 72 h, EFO21 (ovary)): 0.07 µM
- IC50 (Homo sapiens, EJ-28, 72 h, EJ28 (bladder)): 0.03 µM
- IC50 (Homo sapiens, Granta-519, 72 h, GRANTA-519 (hematological)): 0.11 µM
- IC50 (Homo sapiens, HCT-15, 72 h, HCT15 (colon)): 0.04 µM
- IC50 (Homo sapiens, HCT-116, 72 h, HCT116 (colon)): 0.14 µM
- IC50 (Homo sapiens, HEK293, 72 h, HEK293 (kidney)): 0.05 µM
- IC50 (Homo sapiens, HL-60, 72 h, HL-60 (hematological)): 0.04 µM
- IC50 (Homo sapiens, HT-29, 72 h, HT29 (colon)): 0.07 µM
- IC50 (Homo sapiens, HT-1080, 72 h, HT1080 (connective tissue)): 0.07 µM
- IC50 (Homo sapiens, HeLa, HELA (endometrial)): 0.07 µM
- IC50 (Homo sapiens, HepG2, 72 h, HEPG2 (liver)): 0.04 µM
- IC50 (Homo sapiens, Hs-578T, HS578T (breast)): 0.08 µM
- IC50 (Homo sapiens, IGROV-1, 72 h, IGROV1 (ovary)): 0.05 µM
- IC50 (Homo sapiens, IMR-90, 72 h, IMR90 (lung)): 0.03 µM
- IC50 (Homo sapiens, JEG-3, 72 h, JEG3 (placenta)): 0.04 µM
- IC50 (Homo sapiens, JIMT-1, 72 h, JIMT1 (breast)): 0.02 µM
- IC50 (Homo sapiens, K562, 72 h, K-562 (hematological)): 0.12 µM
- IC50 (Homo sapiens, Kasumi 1, 72 h, KASUMI-1 (hematological)): 0.01 µM
- IC50 (Homo sapiens, L-363, 72 h, L-363 (hematological)): 0.02 µM
- IC50 (Homo sapiens, LoVo, LOVO (colon)): 0.02 µM
- IC50 (Homo sapiens, MCF7, 72 h, MCF7 (breast)): 0.1 µM
- IC50 (Homo sapiens, MDA-MB-231, 72 h, MDAMB231 (breast)): 0.04 µM
- IC50 (Homo sapiens, MDA-MB-435, 72 h, MDAMB435 (skin)): 0.05 µM
- IC50 (Homo sapiens, MDA-MB-436, 72 h, MDAMB436 (breast)): 0.04 µM
- IC50 (Homo sapiens, MDA-MB-468, 72 h, MDAMB468 (breast)): 0.08 µM
- IC50 (Homo sapiens, MG-63, 72 h, MG63 (bone)): 0.39 µM
- IC50 (Homo sapiens, MHH-ES-1, 72 h, MHHES1 (bone)): 0.07 µM
- IC50 (Homo sapiens, MIA PaCa-2, 72 h, MIAPACA2 (pancreas)): 0.13 µM
- IC50 (Homo sapiens, MINO, MINO (hematological)): 0.01 µM
- IC50 (Homo sapiens, MV4-11, 72 h, MV4-11 (hematological)): 0.02 µM
- IC50 (Homo sapiens, NCI-H23, 72 h, NCI-H23 (lung)): 0.04 µM
- IC50 (Homo sapiens, NCI-H82, 72 h, NCIH82 (lung)): 0.06 µM
- IC50 (Homo sapiens, NCI-H292, 72 h, NCIH292 (lung)): 0.09 µM
- IC50 (Homo sapiens, NCI-H460, 72 h, NCIH460 (lung)): 0.04 µM
- IC50 (Homo sapiens, OVCAR-3, 72 h, OVCAR3 (ovary)): 0.04 µM
- IC50 (Homo sapiens, OVCAR-4, 72 h, OVCAR4 (ovary)): 0.05 µM
- IC50 (Homo sapiens, PLC-PRF-5, 72 h, PLCPRF5 (liver)): 0.23 µM
- IC50 (Homo sapiens, Panc1005, 72 h, PANC1005 (pancreas)): 0.05 µM
- IC50 (Homo sapiens, Ramos, RAMOS (hematological)): 0.14 µM
- IC50 (Homo sapiens, SAOS-2, 72 h, SAOS2 (bone)): 0.05 µM
- IC50 (Homo sapiens, SF-268, 72 h, SF268 (brain)): 0.16 µM
- IC50 (Homo sapiens, SF-295, 72 h, SF295 (brain)): 0.16 µM
- IC50 (Homo sapiens, SK-BR-3, 72 h, SKBR3 (breast)): 0.01 µM
- IC50 (Homo sapiens, SK-HEP1, 72 h, SKHEP1 (liver)): 0.02 µM
- IC50 (Homo sapiens, SK-LMS-1, 72 h, SKLMS1 (uterus)): 0.04 µM
- IC50 (Homo sapiens, SK-MEL-5, 72 h, SKMEL5 (skin; SKMELS [sic] in Table 9E)): 0.05 µM
- IC50 (Homo sapiens, SK-MEL-28, 72 h, SKMEL28 (skin)): 0.1 µM
- IC50 (Homo sapiens, SK-N-AS, SKNAS (brain)): 0.03 µM
- IC50 (Homo sapiens, SK-N-SH, SKNSH (brain)): 0.03 µM
- IC50 (Homo sapiens, SK-OV-3, 72 h, SKOV3 (ovary)): 0.05 µM
- IC50 (Homo sapiens, SNB-75, 72 h, SNB75 (brain)): 0.1 µM
- IC50 (Homo sapiens, SU-DHL10, 72 h, SU-DHL-10 (hematological)): 0.18 µM
- IC50 (Homo sapiens, SU-DHL-6, 72 h, SU-DHL-6 (hematological)): 0.01 µM
- IC50 (Homo sapiens, SW-620, 72 h, SW620 (colon)): 0.03 µM
- IC50 (Homo sapiens, TE-671, 72 h, TE671 (muscle)): 0.15 µM
- IC50 (Homo sapiens, THP-1, 72 h, THP-1 (hematological)): 0.02 µM
- IC50 (Homo sapiens, U2OS, U20S (bone; U2OS in Table 9E)): 0.04 µM
- IC50 (Homo sapiens, U-87 MG, U87MG (brain)): 0.03 µM
- IC50 (Homo sapiens, UMUC3, 72 h, UMUC3 (bladder)): 0.03 µM
- IC50 (Homo sapiens, UO-31, 72 h, UO31 (kidney)): 0.05 µM
- IC50 (Homo sapiens, WSU-NHL, WSU-NHL (hematological)): 0.03 µM
- IC50 (NCI-H358M, NCIH358M (lung)): 0.07 µM
- IC50 (PBMC, PBMC (hematological)): 0.18 µM
- IC50 (RD-ES, RDES (bone)): 0.02 µM
